Data taken from publication PMC9021288 (Nature Communications, 2022).
Where “and” joins values, the source holds several entries; their conditions need not be identical. Equal values may be shown once.

What was measured:
[1] = tested on: P. falciparum NF54-HGL gametocytes; set-up: method as in earlier work; details: ref 15 (Schalkwijk et al.); read-out: Gametocyte IC50; cited from earlier work
AcAS (PF3D7_0627800) = assay: Cellular thermal shift assay on parasite lysate; type: binding, Plasmodium falciparum; details: 1 µM; for AcAS band intensity normalized to DMSO at 37 °C: listed as iPanAm
Procedure: A cellular thermal shift assay (CETSA) was performed on infected RBCs or parasite lysates as described previously.
For a CETSA on parasite lysates, synchronized trophozoite cultures (ACS11-tagged parasites) were treated with 0.1% saponin to lyse the RBCs, and washed three times in PBS. Subsequently, parasite pellets were resuspended in 1× lysis buffer and subjected to three flash-freeze-thaw cycles using liquid nitrogen, followed by mechanical shearing using a syringe with a 25 G and a 30 G needle. Samples were spun down at 18,000 g for 20 min at 4 °C. The supernatant was diluted to 2.1 mg/ml protein concentration, and 100 µl was added to each PCR tube containing 1 µl of the compound at a 100× concentration (final concentration of 1 µM). Samples were incubated for 30 min at room temperature, subjected to a thermal gradient for 3 min on a pre-heated PCR machine, followed by 4 °C for 3 min. Samples were spun down at 18,000 g for 20 min at 4 °C and the soluble fraction was flash-frozen in liquid nitrogen and stored at −80 °C.
Samples were loaded on an 8% SDS-Page gel (Genscript) with 4×10^6 infected RBCs or 50 µg protein for the parasite lysate approach. Proteins were transferred to a nitrocellulose membrane that was blocked with 5% skim milk (Sigma) in PBS overnight and incubated with rabbit antiserum against AcAS (1:1000) for 1 h. Subsequently, membranes were washed three times with PBS-Tween for 5 min, followed by incubation with secondary horseradish peroxide (HRP)-conjugated goat anti-rabbit antibodies (Dako P0448, 1:1000) for 1 h. Blots were then washed three times with PBS-Tween for 5 min and twice with PBS. Following a 5-min incubation with Clarity Max Western ECL Substrate (BioRad), protein blots were imaged using the ImageQuant LAS4000 (GE Healthcare). The band intensity was quantified using Fiji software.

Pharmacokinetics in rats = type: in vivo, Sprague Dawley rats
Procedure: (§1) Subsequently, samples were spun down at 1640 g for 5-10 min at 4 °C within 30 min after collection and plasma was collected. […] Urine was collected following an intravenous dose in both rat and dog, allowing renal clearance to be estimated. Human renal clearance was estimated from dog renal clearance as previously described[40] and other human PK parameters were predicted using allometric scaling and/or in vitro clearance data. PK parameters were calculated by naïve pooled approach using WinNonLin software (Phoenix, version 6.3).

[2] = tested on: human primary hepatocytes; assay: Metabolite identification in human hepatocyte relay assay
Excerpt: Briefly, cryopreserved human primary hepatocytes were thawed and cultured as described above.

Renal excretion in rats = type: in vivo, rat
Procedure: as §1, with “A blood sample from the saphenous vein was collected into heparinized capillary tubes at multiple intervals between 0.25 and 24 h after dosing. Subsequently,” for “Subsequently,”

hCaV 1.2 = target: T1, hCaV 1.2 (Homo sapiens, UniProt Q13936); assay: Manual patch clamp; type: cell-based; details: for Minimum current: single cells and Mean, mean
T1 construct: Metrion Biosciences
Procedure: (§2) Safety studies were performed by commercial services using their standard protocols. […] Genotoxicity was investigated using the Ames test (Bacterial Reverse Mutation Assay) (Covance Laboratories Ltd, North Yorkshire, England). In vitro mammalian cell micronucleus screening assay was studied in human peripheral blood lymphocytes (BioReliance Corporation, Rockville, USA). Cardiotoxicity was determined against the hERG channel in an automated patch clamp assay using the Qpatch or against the hNaV 1.5, hKV 1.5 and hCaV 1.2 using a manual patch-clamp technique (Metrion Biosciences, Cambridge, UK). Cytotoxicity in human and rat primary hepatocytes was assessed using the CellTiter-Blue assay performed by commercial services (KaLy-Cell). The viability of HepG2 cells was monitored through the addition of 1 mM resazurin. Following 6 h incubation, the relative amount of reduced resazurin was detected in a fluorimeter and compared to the assay controls (vehicle: 0.1% DMSO and positive control: 10 µM puromycin).

hKV 1.5 = target: T2, hKV 1.5 (Homo sapiens, UniProt P22460); assay: Manual patch clamp; type: cell-based; details: for Charge / Peak current: single cells and Mean, mean
T2 construct: Metrion Biosciences
Procedure: as §2

hNaV 1.5 = target: T3, hNaV 1.5 (Homo sapiens, UniProt Q14524); assay: Manual patch clamp; type: cell-based; details: for Minimum current: single cells and Mean, mean
T3 construct: Metrion Biosciences
Procedure: as §2

T1 sequence (Q13936 whole entry): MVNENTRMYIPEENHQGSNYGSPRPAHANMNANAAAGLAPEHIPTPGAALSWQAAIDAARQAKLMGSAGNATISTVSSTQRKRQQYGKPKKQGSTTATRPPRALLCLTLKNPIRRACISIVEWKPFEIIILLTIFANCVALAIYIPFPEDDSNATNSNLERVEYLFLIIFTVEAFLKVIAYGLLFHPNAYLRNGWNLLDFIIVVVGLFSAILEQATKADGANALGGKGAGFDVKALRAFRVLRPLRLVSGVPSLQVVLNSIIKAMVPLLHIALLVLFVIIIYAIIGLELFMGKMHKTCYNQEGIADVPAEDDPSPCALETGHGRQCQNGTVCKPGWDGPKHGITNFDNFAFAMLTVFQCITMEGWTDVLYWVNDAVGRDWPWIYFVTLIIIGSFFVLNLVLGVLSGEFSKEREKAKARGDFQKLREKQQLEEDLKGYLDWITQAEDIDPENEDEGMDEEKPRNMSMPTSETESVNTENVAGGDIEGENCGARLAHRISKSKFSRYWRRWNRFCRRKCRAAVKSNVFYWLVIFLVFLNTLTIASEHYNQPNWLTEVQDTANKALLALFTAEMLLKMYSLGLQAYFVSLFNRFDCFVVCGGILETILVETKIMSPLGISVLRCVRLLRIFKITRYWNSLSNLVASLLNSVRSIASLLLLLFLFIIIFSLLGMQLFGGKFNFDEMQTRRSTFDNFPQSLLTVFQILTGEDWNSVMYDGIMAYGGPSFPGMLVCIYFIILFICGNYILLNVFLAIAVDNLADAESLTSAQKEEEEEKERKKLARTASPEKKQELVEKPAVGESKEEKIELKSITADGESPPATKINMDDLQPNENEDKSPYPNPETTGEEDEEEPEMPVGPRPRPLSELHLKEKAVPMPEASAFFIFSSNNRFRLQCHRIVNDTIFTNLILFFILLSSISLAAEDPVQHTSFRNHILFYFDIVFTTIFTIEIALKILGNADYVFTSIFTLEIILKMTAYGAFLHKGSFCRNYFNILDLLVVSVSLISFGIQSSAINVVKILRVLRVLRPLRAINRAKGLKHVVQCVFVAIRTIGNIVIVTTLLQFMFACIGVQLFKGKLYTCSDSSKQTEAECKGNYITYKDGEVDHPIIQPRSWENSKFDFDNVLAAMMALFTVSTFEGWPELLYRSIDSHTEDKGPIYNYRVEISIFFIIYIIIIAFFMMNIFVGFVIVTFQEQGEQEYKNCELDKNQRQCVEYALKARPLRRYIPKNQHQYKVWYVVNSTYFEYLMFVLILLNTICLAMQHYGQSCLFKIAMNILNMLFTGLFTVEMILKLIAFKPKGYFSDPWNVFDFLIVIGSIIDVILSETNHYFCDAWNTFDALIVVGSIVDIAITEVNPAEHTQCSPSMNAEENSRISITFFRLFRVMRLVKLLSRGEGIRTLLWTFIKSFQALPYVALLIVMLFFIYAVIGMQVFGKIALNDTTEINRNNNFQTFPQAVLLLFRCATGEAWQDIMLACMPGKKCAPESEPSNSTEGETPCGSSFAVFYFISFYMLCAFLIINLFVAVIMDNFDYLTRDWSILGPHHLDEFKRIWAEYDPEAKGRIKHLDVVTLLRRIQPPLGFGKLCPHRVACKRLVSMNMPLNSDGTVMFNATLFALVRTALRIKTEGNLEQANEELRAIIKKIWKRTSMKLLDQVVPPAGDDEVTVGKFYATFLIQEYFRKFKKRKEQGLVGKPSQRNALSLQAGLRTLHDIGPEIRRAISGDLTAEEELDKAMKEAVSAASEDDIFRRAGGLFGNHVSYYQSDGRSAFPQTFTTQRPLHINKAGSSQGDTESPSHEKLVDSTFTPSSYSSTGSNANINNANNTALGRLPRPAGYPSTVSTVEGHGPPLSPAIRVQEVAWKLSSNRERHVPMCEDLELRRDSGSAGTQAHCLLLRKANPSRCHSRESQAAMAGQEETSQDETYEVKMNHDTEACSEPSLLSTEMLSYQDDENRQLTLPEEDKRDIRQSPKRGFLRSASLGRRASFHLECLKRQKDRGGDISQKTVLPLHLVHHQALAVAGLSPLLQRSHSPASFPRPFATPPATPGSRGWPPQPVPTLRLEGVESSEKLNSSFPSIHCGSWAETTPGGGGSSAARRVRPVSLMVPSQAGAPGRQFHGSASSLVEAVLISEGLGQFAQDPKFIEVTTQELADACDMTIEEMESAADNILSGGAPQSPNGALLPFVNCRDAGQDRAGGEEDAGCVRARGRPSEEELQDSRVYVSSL
T1 sequence (Q08289 whole entry partner): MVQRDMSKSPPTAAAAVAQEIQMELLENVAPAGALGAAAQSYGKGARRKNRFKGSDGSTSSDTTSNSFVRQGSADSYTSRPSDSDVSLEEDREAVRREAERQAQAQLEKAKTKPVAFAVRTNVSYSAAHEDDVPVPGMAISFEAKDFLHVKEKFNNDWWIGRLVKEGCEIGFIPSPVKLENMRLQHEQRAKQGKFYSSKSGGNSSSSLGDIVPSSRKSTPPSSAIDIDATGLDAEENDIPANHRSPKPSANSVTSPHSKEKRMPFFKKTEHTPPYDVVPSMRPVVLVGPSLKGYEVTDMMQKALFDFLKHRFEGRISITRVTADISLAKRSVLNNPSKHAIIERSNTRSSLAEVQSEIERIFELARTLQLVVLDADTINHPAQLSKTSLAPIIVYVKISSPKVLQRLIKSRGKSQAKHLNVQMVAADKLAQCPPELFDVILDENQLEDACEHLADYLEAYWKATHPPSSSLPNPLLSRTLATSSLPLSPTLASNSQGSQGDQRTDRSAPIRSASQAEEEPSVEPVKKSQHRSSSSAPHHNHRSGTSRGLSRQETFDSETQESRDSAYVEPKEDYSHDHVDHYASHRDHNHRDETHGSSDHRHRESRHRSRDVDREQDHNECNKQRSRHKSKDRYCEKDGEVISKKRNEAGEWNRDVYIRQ
T1 sequence (P54289 25-946 partner limits assumed): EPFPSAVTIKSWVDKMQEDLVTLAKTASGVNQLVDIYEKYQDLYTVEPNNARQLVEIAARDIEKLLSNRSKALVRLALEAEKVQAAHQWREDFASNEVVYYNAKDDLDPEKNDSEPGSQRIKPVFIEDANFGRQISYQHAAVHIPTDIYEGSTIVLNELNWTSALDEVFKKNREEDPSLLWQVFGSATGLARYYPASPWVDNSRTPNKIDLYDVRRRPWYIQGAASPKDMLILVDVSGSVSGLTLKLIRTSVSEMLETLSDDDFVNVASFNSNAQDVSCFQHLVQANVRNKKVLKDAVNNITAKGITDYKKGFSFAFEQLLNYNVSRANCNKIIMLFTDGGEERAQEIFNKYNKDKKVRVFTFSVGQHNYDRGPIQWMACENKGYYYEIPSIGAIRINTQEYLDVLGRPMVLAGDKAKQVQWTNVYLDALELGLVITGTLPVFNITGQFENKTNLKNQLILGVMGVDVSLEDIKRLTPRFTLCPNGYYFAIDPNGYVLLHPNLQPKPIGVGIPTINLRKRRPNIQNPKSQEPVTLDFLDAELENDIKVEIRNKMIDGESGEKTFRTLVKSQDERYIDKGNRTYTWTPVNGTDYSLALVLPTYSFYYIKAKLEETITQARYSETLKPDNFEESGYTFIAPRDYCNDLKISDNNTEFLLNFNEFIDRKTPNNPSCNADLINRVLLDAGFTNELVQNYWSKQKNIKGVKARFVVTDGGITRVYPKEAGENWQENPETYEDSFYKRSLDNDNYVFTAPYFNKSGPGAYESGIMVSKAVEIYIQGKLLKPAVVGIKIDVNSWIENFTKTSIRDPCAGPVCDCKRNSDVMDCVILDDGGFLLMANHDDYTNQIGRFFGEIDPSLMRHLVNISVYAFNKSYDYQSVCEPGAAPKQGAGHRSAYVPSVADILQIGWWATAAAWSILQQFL
T1 sequence (P54289 947-1103 partner limits assumed): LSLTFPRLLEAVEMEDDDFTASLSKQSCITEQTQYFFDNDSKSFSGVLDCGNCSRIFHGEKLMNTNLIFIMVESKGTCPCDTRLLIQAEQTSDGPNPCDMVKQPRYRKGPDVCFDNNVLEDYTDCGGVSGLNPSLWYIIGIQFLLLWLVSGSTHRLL
T2 sequence (P22460 whole entry): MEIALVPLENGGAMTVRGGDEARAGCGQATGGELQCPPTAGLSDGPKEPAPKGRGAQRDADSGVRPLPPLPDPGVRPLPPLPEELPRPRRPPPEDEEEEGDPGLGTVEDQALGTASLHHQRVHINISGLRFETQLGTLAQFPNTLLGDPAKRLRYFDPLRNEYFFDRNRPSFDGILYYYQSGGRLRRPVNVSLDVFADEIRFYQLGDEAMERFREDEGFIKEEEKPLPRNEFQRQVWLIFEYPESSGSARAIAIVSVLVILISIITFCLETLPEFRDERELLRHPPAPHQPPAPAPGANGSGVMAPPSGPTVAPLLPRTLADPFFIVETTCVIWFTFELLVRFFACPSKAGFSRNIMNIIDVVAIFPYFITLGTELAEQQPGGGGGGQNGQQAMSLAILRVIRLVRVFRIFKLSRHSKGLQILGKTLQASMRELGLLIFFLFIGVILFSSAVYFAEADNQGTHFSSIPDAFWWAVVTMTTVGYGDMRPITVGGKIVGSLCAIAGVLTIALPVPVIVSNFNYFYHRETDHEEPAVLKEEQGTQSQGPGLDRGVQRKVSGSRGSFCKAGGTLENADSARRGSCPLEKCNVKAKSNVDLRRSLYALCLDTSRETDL

Compound: CC(CNC(=O)C(O)C(C)(C)CO)NC(=O)CCc1ccccc1F (stereo in doubt) [MMV689258]
- IC50 [1]: 12 nM

Compound: C[C@@H](CNC(=O)[C@H](O)C(C)(C)CO)NC(=O)c1cc(F)c(F)cc1F [MMV693183]
- AcAS band intensity normalized to DMSO at 37 °C (AcAS (PF3D7_0627800); 37 °C): 134.836
- AcAS band intensity normalized to DMSO at 37 °C (AcAS (PF3D7_0627800); 42 °C): 174.374
- AcAS band intensity normalized to DMSO at 37 °C (AcAS (PF3D7_0627800); 47 °C): 76.9786
- AcAS band intensity normalized to DMSO at 37 °C (AcAS (PF3D7_0627800); 52 °C): 24.7861
- AcAS thermal stability (AcAS (PF3D7_0627800); 30 min, parasite lysate): neither the parent compound MMV693183 nor its derivative 4’P-MMV693183 affected AcAS stability
- Observed hepatic/ predicted hepatic (Pharmacokinetics in rats; Rat): 1.0
- Observed total-renal = observed hepatic (Pharmacokinetics in rats; Rat): 13.5 mL/min/kg
- Predicted hepatic plasma clearance (Pharmacokinetics in rats; Rat): 13.3 mL/min/kg
- Norm. conc i.v. (Pharmacokinetics in rats; Rat, Time (hrs) 0): 0 ng/mL
- Norm. conc i.v. (Pharmacokinetics in rats; Rat, Time (hrs) 0.083333): 1040 ng/mL and 843.333 ng/mL
- Norm. conc i.v. (Pharmacokinetics in rats; Rat, Time (hrs) 0.25): 746.667 ng/mL and 613.333 ng/mL and 566.667 ng/mL
- Norm. conc i.v. (Pharmacokinetics in rats; Rat, Time (hrs) 0.5): 490 ng/mL and 406.667 ng/mL and 376.667 ng/mL
- Norm. conc i.v. (Pharmacokinetics in rats; Rat, Time (hrs) 1): 217.333 ng/mL and 175 ng/mL and 167 ng/mL
- Norm. conc i.v. (Pharmacokinetics in rats; Rat, Time (hrs) 2): 53.3333 ng/mL and 56.3333 ng/mL and 51.6667 ng/mL
- Norm. conc i.v. (Pharmacokinetics in rats; Rat, Time (hrs) 4): 21.4 ng/mL and 17.9 ng/mL and 18.1 ng/mL
- Norm. conc p.o. (Pharmacokinetics in rats; Rat, Time (hrs) 0): 0 ng/mL
- Norm. conc p.o. (Pharmacokinetics in rats; Rat, Time (hrs) 0.25): 726.667 ng/mL and 573.333 ng/mL and 746.667 ng/mL
- Norm. conc p.o. (Pharmacokinetics in rats; Rat, Time (hrs) 0.5): 686.667 ng/mL and 511.333 ng/mL and 591.333 ng/mL
- Norm. conc p.o. (Pharmacokinetics in rats; Rat, Time (hrs) 1): 380.667 ng/mL and 303.333 ng/mL and 362 ng/mL
- Norm. conc p.o. (Pharmacokinetics in rats; Rat, Time (hrs) 4): 22.4667 ng/mL and 18.8 ng/mL and 29.5 ng/mL
- Norm. conc p.o. (Pharmacokinetics in rats; Rat, Time (hrs) 8): 12.2 ng/mL and 7.667 ng/mL and 10.6333 ng/mL
- AUC0-∞ (Pharmacokinetics in rats; i.v. 3 mg/kg, mean): 2398.4 ng·h/mL
- AUClast (Pharmacokinetics in rats; i.v. 3 mg/kg, mean): 2394.8 ng·h/mL
- C0 (Pharmacokinetics in rats; i.v. 3 mg/kg, mean): 3245.1 ng/mL
- Kel (Pharmacokinetics in rats; i.v. 3 mg/kg, mean): 0.22 h⁻¹
- Vss_obs (Pharmacokinetics in rats; i.v. 3 mg/kg, mean): 1962.4 mL/kg
- CLtotal (Pharmacokinetics in rats; i.v. 3 mg/kg, mean, 3 mg/kg): 21.1 mL/min/kg and 21.14 mL/min/kg and 21 mL/min/kg
- T1/2 (Pharmacokinetics in rats; i.v. 3 mg/kg, mean, 3 mg/kg): 3.1 h and 3.13 h
- AUC0-∞ (Pharmacokinetics in rats; p.o. 30 mg/kg, mean): 29077.1 ng·h/mL
- AUClast (Pharmacokinetics in rats; p.o. 30 mg/kg, mean): 29063.9 ng·h/mL
- CLtotal (Pharmacokinetics in rats; p.o. 30 mg/kg, mean): 17.57 mL/min/kg
- Cmax (Pharmacokinetics in rats; p.o. 30 mg/kg, mean): 20466.7 ng/mL
- Kel (Pharmacokinetics in rats; p.o. 30 mg/kg, mean): 0.27 h⁻¹
- T1/2 (Pharmacokinetics in rats; p.o. 30 mg/kg, mean): 2.57 h
- Tmax (Pharmacokinetics in rats; p.o. 30 mg/kg, mean): 15 min
- %F (Pharmacokinetics in rats; p.o. 30 mg/kg, mean, 30 mg/kg): 121% and 121.24%
- In vitro (MS response) [2]: 85%
- Urine fraction (Renal excretion in rats; Mean): 0.36
- Observed renal plasma clearance (Renal excretion in rats; Rat): 7.7 mL/min/kg
- Concentration corrected for dilution (Renal excretion in rats; rat urine after IV dosing, 400x diluted samples, individual rats R4, R5, R6): 27920.0 ng/mL and 106400.0 ng/mL and 15600.0 ng/mL
- drug eliminated in urine (Renal excretion in rats; rats, i.v. 3 mg/kg): 36-40%
- Inhibition (hCaV 1.2; 10 µM): 24.20%
- Minimum current (hCaV 1.2; Cav1.2, 0.3uM): 4.49%
- Minimum current (hCaV 1.2; Cav1.2, 1uM): 7.60%
- Minimum current (hCaV 1.2; Cav1.2, 10uM): 24.20%
- IC50 (hCaV 1.2; hCaV 1.2): > 10 µM
- Inhibition (hKV 1.5; 10 µM): 2.15%
- IC50 (hKV 1.5; hKV 1.5): > 10 µM
- Charge (hKV 1.5; hKv1.5, 300nM): 4.53%
- Peak current (hKV 1.5; hKv1.5, 300nM): 0.19%
- Peak current (hKV 1.5; hKv1.5, 1uM): 1.06%
- Charge (hKV 1.5; hKv1.5, 3uM): 8.60%
- Peak current (hKV 1.5; hKv1.5, 3uM): 0.58%
- Peak current (hKV 1.5; hKv1.5, 10uM): 2.15%
- Inhibition (hNaV 1.5; 10 µM): 1.56%
- IC50 (hNaV 1.5; hNav 1.5): > 10 µM
- Minimum current (hNaV 1.5; hNav1.5, 300nM, P1): 1.33%
- Minimum current (hNaV 1.5; hNav1.5, 300nM, P10): 2.55%
- Minimum current (hNaV 1.5; hNav1.5, 1uM, P10): 0.96%
- Minimum current (hNaV 1.5; hNav1.5, 3uM, P1): -2.90%
- Minimum current (hNaV 1.5; hNav1.5, 3uM, P10): 2.43%
- Minimum current (hNaV 1.5; hNav1.5, 10uM, P1): -1.24%
- Minimum current (hNaV 1.5; hNav1.5, 10uM, P10): 1.56%
